We go through 10 molecules from publication PMC10928712, “High Target Homology Does Not Guarantee Inhibition: Aminothiazoles Emerge as Inhibitors of Plasmodium falciparum” (ACS Infectious Diseases, 2024).

One data set has as its system P. falciparum Dd2. Briefly: Method III growth inhibition assay (HRP2-ELISA, 3 days), Dd2. Format: cell-based, Plasmodium falciparum. The conditions noted are these: Plasmodium falciparum, DD2, chloroquine-resistant Dd2, method III.
In data set [1] the test system is P. falciparum 3D7. As to the kind of experiment: Method I growth-inhibition assay (SYBR Green I, 96 h). The format is cell-based. The conditions noted are these: Plasmodium falciparum; 3D7, method I; nM; read-out: IC50 3D7-I. The text has this:
Nonlinear regression as implemented in GraphPad Prism 7.00 (log(inhibitor) vs response – variable slope (four parameters)) was used to fit the measured data to interpolate the IC50 value from the curve. No specific model was applied. Data was preprocessed by normalizing according to the following formula: […]
eq 1: Fluorescence data normalization [drawing 2] where y is the fluorescence signal in each well, yminimum is the background fluorescence, and ymaximum is the highest measured fluorescence signal in the untreated wells. Drug concentrations (in μM) were transformed to the log(10)of the values. Means of each independent experiment were plotted as individual values, and the SD of the mean from the means shown as error bars. […] In case of transgenic cell lines, the built-in comparison Akaike’s information criteria (AICc) method was applied to the Log IC50s of the different cell lines. The test calculates a percentage probability of the simpler model “Log IC50 is the same for datasets” being correct. The test for homoscedasticity was performed to confirm if no weighting of values was appropriate.

The test system of data set [2] is P. falciparum 3D7. Briefly: Method III growth inhibition assay (HRP2-ELISA, 3 days), 3D7. Format: cell-based, Plasmodium falciparum. A general note: ELISA stands for enzyme-linked immunosorbent assay.
Data set [3] relates to P. falciparum 3D7. As to the kind of experiment: Method II growth-inhibition assay (PicoGreen, 3 days), 3D7. The format is cell-based. The conditions noted are these: Plasmodium falciparum; 3D7, method II; read-out: IC50 3D7-II. From the text:
(§1) Fidock (Columbia University).

Data set [4] deals with P. falciparum 3D7. As to the kind of experiment: IDP rescue assay, P. falciparum 3D7. The format is cell-based. The conditions noted are these: Plasmodium falciparum. How it is done: (§2) Fidock (Columbia University). […] P. falciparum cultures were treated as described in method II. For IDP (Isoprenoids.com) rescue experiments, 125 μM IDP was added to the appropriate wells for the duration of the experiment. The well-described DXR inhibitor FSM was used as a positive control. IC50 values were calculated by nonlinear regression analysis using GraphPad Prism software. All experiments were performed at least in triplicate, and data reported represent the mean ± SD.

Data set [5] deals with P. falciparum NF54. As to the kind of experiment: Method II growth-inhibition assay (PicoGreen, 3 days), NF54. The conditions noted are these: Plasmodium falciparum; chloroquine-sensitive NF54, method II. Format: cell-based.
Text: as §1

The subject of data set [6] is P. falciparum NF54. Briefly: IDP rescue assay, P. falciparum NF54. The format is cell-based. The conditions noted are these: Plasmodium falciparum. On the procedure:
as §2

The nature of data set [7]: Kinetic solubility determination. The format is physicochemical. The conditions noted are these: PBS buffer and 2% DMSO; for solubility at 5 min: PBS with 2% DMSO, aqueous buffer, kinetic from dmso stock, read-out: Max. solubility. On the procedure: The desired compounds were sequentially diluted in DMSO in a 96-well plate. 3 μL of each well was transferred into another 96-well plate and mixed with 147 μL of PBS. Plates were shaken for 5 min at 600 rpm at room temperature (r.t.), and the absorbance at 620 nm was measured. Absorbance values were normalized by blank subtraction and plotted using GraphPad Prism 8.4.2 (GraphPad Software, San Diego, California, USA). Solubility (S) was determined based on the First X value of AUC function using a threshold of 0.005.

Data set [8] is described as follows: Metabolic stability in human liver S9 fraction. The conditions noted are these: human, pooled liver S9 fraction, 1 μM compound. The format is in vitro ADME. On the procedure: For the evaluation of combined phase I and phase II metabolic stability, the compound (1 μM) was incubated with 1 mg/mL pooled liver S9 fraction (XenoTech), 2 mM NADPH, 1 mM UDPGA, 10 mM MgCl2, 5 mM GSH, and 0.1 mM PAPS at 37 °C for 0, 5, 15, 30, and 60 min. The metabolic stabilities of testosterone (1 μM), verapamil (1 μM), and propranolol (1 μM) were determined in parallel to confirm the enzymatic activity of the S9 fraction. The incubation was stopped by precipitation of S9 enzymes with two volumes of cold acetonitrile containing internal standard (150 nM diphenhydramine). Samples were stored on ice for 10 min, and precipitated protein was removed by centrifugation (15 min, 4 °C, 4000 rpm). The concentration of the remaining test compound at the different time points was analyzed by LC-MS/MS (TSQ Quantum Access MAX, Thermo Fisher, Dreieich, Germany) and used to determine half-life (t1/2).

The subject of another data set is Hep G2 cells. Briefly: Hep G2 viability assay (counter screen). The format is cell-based, human. The conditions noted are these: for IC50: Homo sapiens, HepG2, 48 h, cytotoxicity, 48 h. On the procedure: HepG2 cells (2 × 10^5 cells per well) were seeded in 24-well, flat-bottomed plates. Culturing of cells, incubations, and OD measurements were performed as described previously with small modifications.[58] 24 h after seeding the cells, the incubation was started by the addition of compounds in a final DMSO concentration of 1%. The metabolic activity of the living cell mass was determined after 48 h. At least three independent measurements were performed for each compound. The IC50 values were determined during logarithmic growth using GraphPad Prism software. All experiments were performed at least in triplicate, and data reported represent the mean ± SD.

Setting [9] is: Plasmodium falciparum, 3D7, 3D7, method III (HRP2 assay), drc package of R, read-out: IC50 P. falciparum 3D7 (method III).
The mark [10] stands for this setting: Plasmodium falciparum, 3D7, table of compounds as SMILES with biological activity, strain not given, values match 3D7 method III, read-out: IC50.
The mark [11] stands for this setting: 3D7, method III (HRP2 assay), drc package of R, read-out: IC50 P. falciparum 3D7 (method III).

Broadly, the IC50 is the concentration that inhibits the measured activity by half. The solubility is the dissolved amount per volume that the medium holds. One may read the half-life as the time needed for the level to fall by half in the phase considered. Low readings indicate fast loss, high ones slow loss.

Values after ≈ are worked out from the molar mass of the structure shown.

As for `CCN(CC)CCCC(C)Nc1ccnc2cc(Cl)ccc12` (centres unmarked) [Chloroquine, chloroquine diphosphate, reference compound], the IC50 stood at 190 ± 30 nM in the data set with P. falciparum Dd2; 17.8 ± 3.1 nM in the data set on P. falciparum 3D7 [1]; 2.8 ± 0.7 nM with P. falciparum 3D7 [2] (Plasmodium falciparum, 3D7, 3D7, method III, nM, read-out: IC50 3D7-III).
Take `O=CN(O)CCCP(=O)(O)O` [FSM, fosmidomycin, reference compound]: the IC50 in the data set on P. falciparum 3D7 [3] was determined as 900 ± 200 nM; in the data set on P. falciparum 3D7 [4] (3D7, 72 h, + IDP (125 μM)), 37400 ± 18200 nM; in the data set on P. falciparum 3D7 [4] (3D7, without IDP), 900 ± 400 nM; in the data set with P. falciparum NF54 [5], 700 ± 300 nM; in the data set on P. falciparum NF54 [6] (NF54, 72 h, + IDP (125 μM)) it was 7800 ± 300 nM; in the data set with P. falciparum NF54 [6] (NF54, without IDP) it was 900 ± 500 nM.
As for `COc1cc(O)ccc1/C(Cc1ccc(N)cc1)=N/O` [compound 4, (E)-2-(4-Aminophenyl)-1-(4-hydroxy-2-methoxyphenyl)ethan-1-one oxime], in [7], the Max. solubility is 202.6 ± 1.6 µM and the solubility at 5 min is around 200 µM (≈ 54.5 µg/mL). This molecule also showed an IC50 with P. falciparum Dd2 of 94000 ± 16000 nM. Also, the IC50 in the data set on P. falciparum 3D7 [2] (setting [9]) was above 111000 nM.
In the case of `Nc1ccc(C/C(=N\O)c2ccc(O)cc2O)cc1` [compound 5, (E)-2-(4-Aminophenyl)-1-(2,4-dihydroxyphenyl)ethan-1-one oxime], in data set [7], the Max. solubility was 193.6 ± 95.7 µM and the solubility at 5 min was around 200 µM (≈ 51.7 µg/mL). In the data set with P. falciparum Dd2, the IC50 was above 111000 nM. Moreover, the IC50 with P. falciparum 3D7 [2] (setting [9]) was above 111000 nM.
As to `COc1ccc(/C(Cc2ccc(N)cc2)=N/O)c(OC)c1` [compound 6, (E)-2-(4-Aminophenyl)-1-(2,4-dimethoxyphenyl)ethan-1-one oxime], the solubility at 5 min in data set [7] turned out to be 119 ± 27.4 µM (≈ 34.2 µg/mL). The IC50 with P. falciparum Dd2 and with P. falciparum 3D7 [2] (setting [9]) was above 111000 nM in each case.
In the case of `Nc1ccc(C(Cc2ccc(Cl)cc2)=NO)c(O)c1` [compound 10], the 50% inhibitory concentration (IC50) was 24000 ± 4000 nM in the data set on P. falciparum Dd2, 38000 ± 11000 nM in the data set on P. falciparum 3D7 [2] (setting [9]), 38200 nM in the data set on P. falciparum 3D7 [2] (setting [10]) and 50000 to 100000 nM in the data set with Hep G2 cells. The half-life at 1 μM in data set [8] was 0.9333 ± 0.00667 h.
Regarding `Oc1ccc(C(O)Cc2ccc(Cl)cc2)c(O)c1` (centres unmarked) [compound 13, 4-(2-(4-Chlorophenyl)-1-hydroxyethyl)benzene-1,3-diol], the IC50 was 28000 ± 13000 nM in the data set on P. falciparum Dd2, 10000 ± 2000 nM in the data set with P. falciparum 3D7 [2] (setting [11]), 9900 ± 1700 nM in the data set with P. falciparum 3D7 [2] (setting [9]) and above 100000 nM in the data set on Hep G2 cells. The molecule also yielded a half-life at 1 μM in data set [8] of 1.63 ± 0.167 h. The “cytotoxicity towards Hep G2 cells” value in the data set on Hep G2 cells (at 100 μM) was “no cytotoxicity”.
Turning to `OCc1cn(Cc2ccc(Cl)c(Cl)c2)c2cccc(F)c12` [compound 33, (1-(3,4-Dichlorobenzyl)-4-fluoro-1H-indol-3-yl)methanol], the IC50 with P. falciparum Dd2 was found to be 3000 nM; with P. falciparum 3D7 [3], 3000 nM; with P. falciparum 3D7 [4] (3D7, 72 h, + IDP (125 μM)), 3100 nM; in the data set with P. falciparum 3D7 [4] (3D7, without IDP) it was 2700 ± 300 nM; with P. falciparum NF54 [5], 3000 ± 1000 nM; with P. falciparum NF54 [6] (NF54, 72 h, + IDP (125 μM)), 2200 nM. In addition, the half-inhibitory concentration (IC50) amounted to 2400 ± 600 nM with P. falciparum NF54 [6] (NF54, without IDP); 2000 nM with P. falciparum 3D7 [2] (setting [11]); 3000 nM with P. falciparum 3D7 [2] (setting [9]); 2400 nM in the data set on P. falciparum 3D7 [2] (setting [10]); 790 ± 370 nM in the data set with Hep G2 cells.
For `Cc1ccc(Nc2nc(-c3ccccn3)cs2)cc1C` [compound 46, N-(3,4-Dimethylphenyl)-4-(pyridin-2-yl)thiazol-2-amine], the IC50 in the data set on P. falciparum Dd2 turned out to be 2000 nM; with P. falciparum 3D7 [3], 2000 nM; with P. falciparum 3D7 [4] (3D7, 72 h, + IDP (125 μM)) it was 2800 nM; with P. falciparum 3D7 [4] (3D7, without IDP) it was 2300 ± 400 nM; in the data set on P. falciparum NF54 [5], 2000 ± 1000 nM; in the data set on P. falciparum NF54 [6] (NF54, 72 h, + IDP (125 μM)) it was 1200 nM. For the same molecule, the IC50 with P. falciparum NF54 [6] (NF54, without IDP) amounted to 2100 ± 800 nM; with P. falciparum 3D7 [2] (setting [9]), 2000 ± 1000 nM; in the data set on P. falciparum 3D7 [2] (setting [10]), 1500 nM.
In the case of `Cc1nc(N)sc1-c1csc(Nc2ccc(Cl)cn2)n1` [compound 47], the IC50 with P. falciparum Dd2 amounted to 2000 nM; in the data set with P. falciparum 3D7 [3], 2000 ± 1000 nM; with P. falciparum 3D7 [4] (3D7, 72 h, + IDP (125 μM)) it was 2200 nM; in the data set with P. falciparum 3D7 [4] (3D7, without IDP), 2000 ± 700 nM; in the data set with P. falciparum NF54 [5], 2000 nM; with P. falciparum NF54 [6] (NF54, 72 h, + IDP (125 μM)), 1200 nM. Moreover, the concentration for half-maximal inhibition (IC50) in the data set with P. falciparum NF54 [6] (NF54, without IDP) stood at 1600 ± 300 nM; with P. falciparum 3D7 [2] (setting [9]), 1000 nM.
